Measurements published in US8426394B2, “Progesterone antagonists such as CDB-4124 in the treatment of endometriosis, uterine fibroids, dysmenorrhea, breast cancer, etc” (Repros Therapeutics Inc., priority 2008, dated 2013).

What was measured:
[1] = tested on: pre-menopausal adult women diagnosed with endometriosis; assay: Six month study of Proellex (CDB-4124) in the treatment of endometriosis; assay type: in vivo, human
Protocol: Pain reduction also occurred more rapidly than with the active control, Lucrin®. The response of pain to treatment in this study was analyzed in two ways. Patients in the study maintained daily pain diaries to record the severity and frequency of pain. In addition, at each office visit, patients filled out endometriosis symptom surveys that included a questionnaire that evaluated intensity of pain on a bad day on a scale of 0-10 with 10 being the greatest intensity. […] There appeared to be a dose dependent effect on pain reduction. […] This decrease in duration of pain was statistically better (p=0.0012) than the 117.8 (74%; standard deviation 51.4 days) pain free days achieved with Lucrin®. […] Patients on CDB-4124 12.5 mg and 25 mg doses had 115.9 (66%; standard deviation 69.2 days) and 133.6 (75%; standard deviation 27.4 days) pain free days, respectively. […] The 25 mg and 12.5 mg doses of CDB-4124 were not statistically different from Lucrin®. […] The intensity of pain was assessed by the question: “On a […], with 0 being no pain and 10 being extreme pain, how intense was your pain on a bad day?” The mean scores for intensity of pain at baseline were 6.3 for the CDB-4124 groups and 6.1 for the Lucrin® group. […] At month three all four active treatment groups had statistically significant reduction in pain compared with baseline, with the following scores: 3.7 (p=0.03) for 12.5 mg CDB-4124, 3.2 (p=0.03) for 25 mg CDB-4124, 1.6 (p=0.015) for 50 mg CDB-4124 and 1.5 (p=0.016) for Lucrin®. These dose related reductions continued until month six when the values for pain intensity were 2.0 (p=0.008), 2.8 (p=0.023), 0.6 (p=0.004) and 0.7 (p=0.016), respectively. Two months after stopping treatment pain returned and was of similar intensity in all four treatment groups.

[2] = tested on: women with uterine fibroids; assay: Three month study in women with uterine fibroids; assay type: in vivo, human; settings: 12.5 mg or 25 mg daily for three months, begun at day 5 of cycle
Protocol: In a separate study, women with uterine fibroids were administered daily doses of 12.5 mg, 25 mg or 50 mg CDB-4124 for a three month period, beginning at day 5 of each woman's menstrual cycle.

[3] = tested on: endometrium; assay: Endometrial biopsies of women in the CDB-4124 treatment groups; assay type: in vivo, human
Protocol: Endometrial biopsies were taken from 27 women exposed to 12.5 mg, 25 mg or 50 mg CDB-4124 for six months and 31 women with uterine fibroids exposed to 12.5 or 25 mg CDB-4124 for three months. Specimens were evaluated in a treatment blinded fashion utilizing the WHO diagnostic schema (Silverberg et al., tumors of the uterine corpus: epithelial tumors and related lesions. Tavassoli F A, Stratton M R, reditors. WHO Classification of Tumors: Pathology and Genetics of Tumors of the Breast and Female Genital Organs. Lyon, France: IARC Press, 2003: 221-232). A consensus primary end point result was determined for each specimen by majority (two or more of three pathologists agree), or in the event of all pathologists disagreeing the “worst” diagnosis of the three was assigned. Additional findings were recorded using a structured data collection instrument. All raw data was provided to the reviewing pathologists, who undertook an independent analysis that was the basis for their conclusions.

[4] = molecular target: opiate μ receptor (MOP) (Homo sapiens, UniProt P35372); assay: Affinity for and inhibition of opiate μ receptor; assay type: binding
opiate μ receptor (MOP), sequence (P35372 whole entry): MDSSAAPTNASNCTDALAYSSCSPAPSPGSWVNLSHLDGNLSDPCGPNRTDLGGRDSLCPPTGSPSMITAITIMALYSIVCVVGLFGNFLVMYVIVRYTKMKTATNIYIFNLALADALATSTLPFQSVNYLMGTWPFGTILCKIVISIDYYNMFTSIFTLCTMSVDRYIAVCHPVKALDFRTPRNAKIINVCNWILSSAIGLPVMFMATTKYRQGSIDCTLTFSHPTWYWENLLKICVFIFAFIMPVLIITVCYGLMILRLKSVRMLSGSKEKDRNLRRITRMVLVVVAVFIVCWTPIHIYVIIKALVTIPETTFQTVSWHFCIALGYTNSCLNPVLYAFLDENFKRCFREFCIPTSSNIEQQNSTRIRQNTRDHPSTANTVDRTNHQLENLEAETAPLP

[5] = tested on: females suffering from endometriosis; assay: Example 12: 12.5 mg CDB-4124 beginning at day 5 versus day 15 of the menstrual cycle; assay type: in vivo, human; settings: 12.5 mg for a six-month period
Protocol: Females suffering from endometriosis are divided into two groups: a first group receives 12.5 mg of CDB-4124 for a six-month period beginning at day 5 of each female's menstrual cycle; a second group receives 12.5 mg of CDB-4124 for a six-month period beginning at day 15 of each female's menstrual cycle. Endometrial thickness is monitored regularly throughout the six-month period.

[6] = tested on: pre-menopausal adult women diagnosed with endometriosis; assay: Six month study of Proellex (CDB-4124) in the treatment of endometriosis; assay type: in vivo, human; settings: for change in endometrial thickness from baseline (ultrasound): statistically insignificant

With COCC(=O)[C@@]1(OC(C)=O)CC[C@H]2[C@@H]3CCC4=CC(=O)CCC4=C3[C@@H](c3ccc(N(C)C)cc3)C[C@@]21C [CDB-4124, 21-methoxy-17α-acetoxy-11β-(4 N,N-dimethylaminophenyl)-19-norpregna-4,9-diene-3,20-dione] the “intensity of pain on a bad day (score)” value ([1]; month six, 12.5 mg CDB-4124, scale 0-10, p=0.008) was 2.0, the “intensity of pain on a bad day (score)” value ([1]; month six, 25 mg CDB-4124, scale 0-10, p=0.023) was 2.8 and the “intensity of pain on a bad day (score)” value ([1]; month six, 50 mg CDB-4124, scale 0-10, p=0.004) was 0.6. The “intensity of pain on a bad day (score)” value ([1]; month three, 12.5 mg CDB-4124, scale 0-10, baseline 6.3, p=0.03) was 3.7, the “intensity of pain on a bad day (score)” value ([1]; month three, 25 mg CDB-4124, scale 0-10, baseline 6.3, p=0.03) was 3.2 and the “intensity of pain on a bad day (score)” value ([1]; month three, 50 mg CDB-4124, scale 0-10, baseline 6.3, p=0.015) was 1.6. For the same molecule, the mean endometrial thickness [2] was “less than 20 mm”, the “subjects with a significant bleeding episode” value [2] was “None” and the “consensus primary diagnosis of endometrial biopsy (WHO schema)” value ([3]; 12.5, 25 or 50 mg for six months, 12.5 or 25 mg for three months) was “benign endometrium”. For the same molecule, the “blood vessel wall thickening and latticed capillary patterns” value ([3]; endometrial biopsies) was “did not induce”, the “most prominent secondary finding within the benign category” value ([3]; endometrial biopsies, more prominent at lowest doses) was “cystic dilation of glands” and the endometrial proliferation ([3]; every concentration tested (12.5, 25, 50 mg)) was “suppressed”. For the same molecule, the “affinity for / inhibition of the opiate μ receptor (MOP)” value [4] was “has affinity for and can inhibit”, the “endometrial thickening, group begun at day 15 versus group begun at day 5” value [5] was “lesser degree of endometrial thickening” and the “increase in endometrial thickness from baseline (ultrasound)” value ([6]; 12.5 mg dose, after six months, begun at day 5 of cycle, statistically significant (p 0.016)) was 10.9 mm. For the same molecule, the “change in endometrial thickness from baseline (ultrasound)” value ([6]; 25 mg dose, after six months, begun at day 5 of cycle) was 9.8 mm, the “change in endometrial thickness from baseline (ultrasound)” value ([6]; 50 mg dose, after six months, begun at day 5 of cycle) was 3.9 mm and the “biomarkers of bone resorption” value ([6]; any of the dose arms of CDB-4124, three and six months of treatment) was “no significant changes”.
